Measurements from US6376169B1, “Method for diagnosing a vascular condition” (Queens University at Kingston, priority 1998, dated 2002).
“Also recorded” adds a separate entry of the source. Structures can show the parent of a compound that is named as a salt. Where two headings read alike, the source gives them in different places.

Key:
uPAR mRNA = experiment: Northern blot of uPAR mRNA in HTR-8/SVneo cells; type: cell-based, human; details: 10 ng/ml VEGF, 24 h, normoxic conditions
Protocol: To determine whether hypoxia regulates the expression of certain genes (e.g., PAI-1, uPAR, RTP/Drg1) via an iron-containing heme protein, cells were cultured for up to 72 h at 20% oxygen in the presence or absence of either 100 μM cobalt chloride, or 30 mM sodium 4,5-dihydroxybenzene-1,3-disulfonate (Tiron), or 100 μM desferrioxamine mesylate (DFO) (Sigma Chemical CO., St. Louis, Mo.). Further confirmation of the role of a heme protein in hypoxic responses can be achieved by culturing cells under hypoxia in the presence of carbon monoxide, which maintains the heme protein in the oxy state and thereby blocks heme protein-mediated hypoxic responses. […]
Northern Blot Analysis. Total RNA was isolated from cell lines as described above. […] RNA was transferred to nylon membranes (Micron Separations, Inc., Westboro, Mass.). […] The hybridization solution contained 6×SSC, 0.5% SDS, 100 μg/mL denatured salmon sperm DNA, 50% formamide and cDNA probe. After hybridization, the membranes were washed with 2×SSC and 0.5% SDS at room temperature for 15 min, 2×SSC and 0.1% SDS at room temperature for 15 min, and 0.1×SSC and 0.5% SDS for 30 min. Dupont Reflection NEF film (Dupont Canada, Inc., Mississauga, ON) was exposed to the membranes for 1-3 days at −80° C. Bands on radiographic film were analyzed using a SigmaGel gel analysis software package (Jandel Scientific Software, San Rafael, Calif.).

uPAR = details: vascular endothelial cells; cited from earlier work
[1] = pubertal or adults rats, Kelce et al; cited from earlier work
APO-induced yawns = experiment: APO-induced yawning response; type: in vivo, Wistar rats
Protocol: (§1) The apomorphine (APO) bioassay of erectile function was performed in an isolated area. The rat model of APO-induced erections used to assess the effects of p,p-DDE and flutamide on erectile function was based on the model developed by Heaton et al J Urol. 145:1099 (1991). The animals were each placed in a separate hanging wire test cage in an isolated, dark and sound proof room and allowed to acclimatize to the surroundings for 10 minutes. Each rat received 80 ug/kg APO (Sigma Chemical Co., St. Louis, Mo.) prepared in physiological saline containing […] ascorbic acid via subcutaneous (s.c.) injection (lml/kg at the nape of the neck). Erectile and yawning responses to APO were monitored and recorded (30 minutes) in an adjacent room via a video monitoring system.
(§2) An erection was counted when an engorged glans penis and distal shaft were exposed. A wide opening of the mouth associated with appropriate respiratory movement identified a yawn. […] Rats with unsatisfactory control erectile response were removed from further study.

APO-induced erections = experiment: Apomorphine (APO) bioassay of erectile function; type: in vivo, Wistar rats
Description: 16 adult male Wistar rats from Charles River Laboratories (Montreal, Quebec) weighing 300-350 g were used in the investigation. The animals were divided into two study groups. The animals were individually housed in a climate-controlled room under a 12-hour light/dark cycle and allowed access to food (Purina Lab Chow) and water ad libitum. All procedures were in accordance with the guidelines set out by the Canadian Council on Animal Care. The animals were allowed to acclimate 5 days prior to testing and were handled by the researcher during this time.
as §1, with “The rat model of APO-induced erections used to assess the effects of p,p-DDE and flutamide on erectile function was based on the model developed by Heaton et al J Urol. 145:1099 (1991).” left out
as §2
Yawns were not altered in either protocol (data not shown).
The 270 mg/kg dose was prepared, requiring initial heating and stirring. This dose was administered in a single injection (1 ml/kg, i.p. of a 270 mg/ml concentration) half an hour prior to the commencement of APO-induced erectile monitoring.
At one week intervals, rats were given single, increasing doses of flutamide (25, 35, or 50 mg/kg) (Sigma Chemical Co., St. Louis, Mo.). For each dose, flutamide was dissolved in peanut oil and administered via i.p injection in a volume of 1 ml/kg. […] Each dose of flutamide was given 1 week after the previous dose, to allow APO-induced erections to return to control levels.
From the group of 8 rats, 4 rats were randomly selected.
Testosterone was administered in an attempt to recover APO-induced erections to control levels.
The required testosterone concentrations were prepared using 100 mg/ml testosterone propionate (Taro Pharmaceuticals, Brarnalea, ON.) diluted in peanut oil. Each dose was administered in a 1 ml/kg volume.
For each APO testing protocol, the average number of erections and standard deviation was determined. […] Therefore, each rat served as its own control. Treated values were compared to control values using Student's paired t-test, except where noted in Study 2b.

hepatic cytochromes P450 = details: literature; cited from earlier work
RTP/Drg1 mRNA = experiment: Northern blot of RTP/Drg1 mRNA in MDA-MB-231 cells; type: cell-based, human; details: 20% oxygen, up to 72 h; 100 μM cobalt chloride, 30 mM Tiron or 100 μM DFO
Protocol: (§3) To determine whether hypoxia regulates the expression of certain genes (e.g., PAI-1, uPAR, RTP/Drg1) via an iron-containing heme protein, cells were cultured for up to 72 h at 20% oxygen in the presence or absence of either 100 μM cobalt chloride, or 30 mM sodium 4,5-dihydroxybenzene-1,3-disulfonate (Tiron), or 100 μM desferrioxamine mesylate (DFO) (Sigma Chemical CO., St. Louis, Mo.). Further confirmation of the role of a heme protein in hypoxic responses can be achieved by culturing cells under hypoxia in the presence of carbon monoxide, which maintains the heme protein in the oxy state and thereby blocks heme protein-mediated hypoxic responses. Thus, cells were also cultured for 24 h at 37° C. under hypoxic conditions in the presence of 30% carbon monoxide.
Northern Blot Analysis. Total RNA was isolated from cell lines as described above. Aliquots of 20 μg were denatured and subjected to electrophoresis in 1% agarose-formaldehyde gels (Sambrook, J., Fritsch, E. F., and Maniatis, T. Molecular Cloning: A Laboratory Manual, Cold Spring Harbor Laboratory, Cold Spring Harbor, N.Y. (1989)). RNA was transferred to nylon membranes (Micron Separations, Inc., Westboro, Mass.). After prehybridization at 42° C. for 2-3 h in 50% formamide, 5×Denhardt's solution, 0.5% sodium dodecyl sulfate (SDS), 6×SSC (1×SSC: 0.15M NaCl, 15 mM sodium citrate, pH 7.0), and 100 μg/mL denatured salmon sperm DNA, membranes were hybridized for a period of time of overnight (˜18 h) to about 72 h at 42° C. with a cDNA probe (e.g., RTP/Drg1, PAI-1 (PAI-1 cDNA provided by Dr. Keith McCrae, Temple University School of Medicine, Philadelphia, Pa.), uPAR (Higazi A, et al., J Biol Chem 266:12752, (1995)) pre-labeled with [^32P]-dCTP using a Pharmacia Oligolabelling kit (Pharmacia Biotech, Piscataway, N.J.). The hybridization solution contained 6×SSC, 0.5% SDS, 100 μg/mL denatured salmon sperm DNA, 50% formamide and cDNA probe. After hybridization, the membranes were washed with 2×SSC and 0.5% SDS at room temperature for 15 min, 2×SSC and 0.1% SDS at room temperature for 15 min, and 0.1×SSC and 0.5% SDS for 30 min. Dupont Reflection NEF film (Dupont Canada, Inc., Mississauga, ON) was exposed to the membranes for 1-3 days at −80° C. Bands on radiographic film were analyzed using a SigmaGel gel analysis software package (Jandel Scientific Software, San Rafael, Calif.).

RTP/Drg1 protein = experiment: Western blot of RTP/Drg1 protein in MDA-MB-231 cells; type: cell-based, human; details: 20% oxygen, up to 72 h; 100 μM cobalt chloride, 30 mM Tiron or 100 μM DFO
Protocol: as §3
Western Blot Analysis. To examine levels of RTP/Drg1 protein, cells were lysed with buffer containing 40 mM HEPES pH 7.2, 100 mM NaCl, 20% glycerol, 0.1 mM EDTA pH 8.0, 0.2% Triton X-100 (polyoxyethylene (10) isooctylphenyl ether), 1 mM DTT, and 2 mM PMSF, and centrifuged briefly at 4° C. The supernatants were collected and stored at −80° C. until use. SDS-PAGE was performed and resolved proteins were transferred to Immobilon-P membranes (Millipore Corp., Bedford, Mass.) using a semi-dry transfer cell (Bio-Rad Laboratories, Mississauga, ON). Membranes were blocked by incubation overnight at 4° C. in a PBS-buffered solution containing 0.01% Tween 20 (polyoxyethylene(20) sorbitan monolaurate) (PBS-T) and 5% casein. The blots were then incubated with polyclonal rabbit anti-Drg1 antiserum followed by incubation with a peroxidase labeled goat anti-rabbit IgG secondary antibody (Vector Lab. Inc., Burlingame, Calif.). Antigen was detected by enhanced chemiluminescence (ECL, Amersham Canada Inc., Oakville, ON) and exposure of the membrane onto Dupont Reflection NEF film (Dupont Canada, Inc., Mississauga ON).

RTP/Drg1 [2] = details: A549 cells exposed to nickel; cited from earlier work
RTP/Drg1 [3] = details: endothelial cells treated with homocysteine; cited from earlier work

For VEGF, the “induction of uPAR mRNA” value (uPAR mRNA) is listed as “did not result in increased levels of uPAR transcript; also recorded: does not induce” and the “expression of uPAR” value (uPAR) is listed as “increases the expression of uPAR”.
In the case of `ClC(Cl)=C(c1ccc(Cl)cc1)c1ccc(Cl)cc1` [p,p-DDE], the plasma testosterone levels [1] is given as “did not alter plasma testosterone levels”, the APO-induced yawns (APO-induced yawns; 500 mg/kg p,p-DDE, two week assessment) is given as “not significantly different from control levels; also recorded: little effect” and the APO-induced yawning responses (APO-induced yawns; p,p-DDE treatment, Study 1) is given as “not altered”. For the same compound, the APO-induced erections (APO-induced erections; 270 mg/kg p,p-DDE i.p., 5 hour testing period, Study 1) was “no significant effect”, the APO-induced erectile response (APO-induced erections; 500 mg/kg p,p-DDE i.p., 3 hours after administration, Study 1) was “significant decrease” and the “APO-induced erectile response two weeks after administration” value (APO-induced erections; 500 mg/kg p,p-DDE vs control and 50 mg/kg flutamide) was “significantly different from controls and from the flutamide two week response; also recorded: remained significantly lower than controls; also recorded: significantly different from both control and 50 mg/kg flutamide responses”. The “APO-induced erections, time course” value (APO-induced erections; single dose 500 mg/kg p,p-DDE, 0.5, 4, 12, 24 hours and 2 weeks, 500 mg/kg) was “significantly decreased; also recorded: persistently suppressed” and the “metabolism upon administration / absorption” value (hepatic cytochromes P450) was “not metabolised”.
For `CC(C)C(=O)Nc1ccc([N+](=O)[O-])c(C(F)(F)F)c1` [flutamide], the “metabolism upon administration / absorption” value (hepatic cytochromes P450) is listed as “rapidly metabolised by hepatic cytochromes P450”.
For `CC(=O)N(O)CCCCCNC(=O)CCC(=O)N(O)CCCCCNC(=O)CCC(=O)N(O)CCCCCN` [DFO, desferrioxamine mesylate], the “levels of RTP/Drg1 mRNA” value (RTP/Drg1 mRNA) was “time-dependent increases in RTP/Drg1 mRNA” and the “levels of RTP/Drg1 protein” value (RTP/Drg1 protein) was “time-dependent increases in RTP/Drg1 protein”.
For `[Ni]` [nickel], the “expression of RTP/Drg1” value (RTP/Drg1 [2]) is listed as “increased”.
For `N[C@@H](CCS)C(=O)O` [homocysteine], the “expression of RTP/Drg1” value (RTP/Drg1 [3]) is listed as “increased”.
In the case of `CCC(=O)O[C@H]1CC[C@H]2[C@@H]3CCC4=CC(=O)CC[C@]4(C)[C@H]3CC[C@]12C` [testosterone, testosterone propionate], the “APO-induced yawning responses after testosterone supplementation” value (APO-induced yawns; p,p-DDE treated rats, 12 hour test periods) was “did not change the status of yawning responses” and the “APO-induced erections in p,p-DDE treated rats after testosterone supplementation” value (APO-induced erections; 480 ug/kg, 1.2 or 2.4 mg/kg i.p., 0.5, 4, 12 hours, two weeks after p,p-DDE) was “no significant increases in erections; also recorded: remained significantly decreased at most of the time points; also recorded: failed to return APO-induced erections to control levels”.
